Source: patent US8981094B2, “Piperidine/piperazine derivatives” (Janssen Pharmaceutica N.V., priority 2007, dated 2015)

Tests used:
GLP-1 plasma levels = test: In vivo study for effect of test compound on GLP-1 plasma levels (postprandial profile); settings: dogs fasted 22 hours, liquid meal 18% fat, compound given orally with the meal; compared with own profile without compound; compound 223 at 0.3 mg/kg in FIG. 1
Protocol: B) In Vivo Study for Effect of Test Compound on GLP-1 Plasma Levels
Elevation of GLP-1 plasma levels by a DGAT inhibitor was studied as follows:
(§1) Dogs were deprived from food for a period of 22 hours. At time 0, animals were given a liquid meal, containing 18% fat (w/w), by gavage with a stomach tube. The test compound was given orally together with the meal. Afterwards, a postprandial plasma profile was determined for GLP-1. Therefore, blood was collected at predetermined time intervals in ice-cooled Vacutainers EDTA-plasma tubes and GLP-1 levels were measured in the samples taken at 0 hour (just before the meal) and at 0.5, 1, 2, 4, 6, 8 and 24 hours after dosing. Six dogs (3 males and 3 females) were included per dosage group and the plasma GLP-1 profile was compared with their own GLP-1 profile previously determined in the same conditions but without administration of the test compound.
GLP-1 determinations in plasma were performed with a Glucagon-like peptide-1 (active) ELISA kit 96-well plate of LINCO Research.

human DGAT1 = molecular target: T1, human DGAT1 (Homo sapiens, UniProt O75907); test: Inhibition of DGAT1 activity, FlashPlate assay with DGAT1 membrane preparations and substrate micelles; type: biochemical; settings: pIC50 = -logIC50, IC50 values expressed in M
T1 construct: FLAG (N); made in house; host or cells: SF9 insect cells (pFastBac baculovirus); total cell membranes
T1 sequence (O75907 1-488): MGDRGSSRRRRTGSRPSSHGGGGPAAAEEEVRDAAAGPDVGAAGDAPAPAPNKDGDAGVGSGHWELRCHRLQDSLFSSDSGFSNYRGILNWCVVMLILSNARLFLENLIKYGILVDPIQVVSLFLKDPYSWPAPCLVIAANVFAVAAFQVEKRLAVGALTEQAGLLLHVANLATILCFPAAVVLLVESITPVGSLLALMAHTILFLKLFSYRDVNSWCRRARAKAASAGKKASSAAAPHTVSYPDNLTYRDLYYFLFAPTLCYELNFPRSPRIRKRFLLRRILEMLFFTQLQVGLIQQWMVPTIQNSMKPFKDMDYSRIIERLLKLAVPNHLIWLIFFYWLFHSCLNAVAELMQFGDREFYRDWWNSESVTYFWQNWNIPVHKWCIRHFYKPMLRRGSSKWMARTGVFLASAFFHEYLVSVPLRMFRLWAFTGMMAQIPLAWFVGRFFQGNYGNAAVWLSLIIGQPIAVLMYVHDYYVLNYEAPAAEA
How it was run: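 FLAG-tagged human DGAT1 membranes (expressed in Sf9 cells) were incubated 120 min at 37° C. in 50 mM Tris-HCl pH 7.4 with 150 mM MgCl2, 1 mM EDTA, 0.2% BSA, 50 μM DAG micelles (PC/PS) and 8.4 μM [^3H]-oleoylCoA. The reaction was stopped with N-ethylmaleimide and read as FlashPlate radioluminescence. Responses were normalized to enzyme/no-enzyme controls to fit dose-response curves.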

[1] = system: plasma triglyceride levels; test: Plasma triglyceride profile after liquid fat meal in dogs; type: in vivo; settings: liquid meal 18% fat, compound given orally, compared with own profile without compound
Protocol: as §1
In addition to the plasma GLP-1 profile, also the plasma triglyceride profile can be determined and compared with their own triglyceride profile previously determined in the same conditions but without administration of the test compound. After administration of compound 223, triglyceride levels decreased.

Row | melting point [°C] | IC50 (human DGAT1) [nM] | SMILES | GLP-1 plasma levels (postprandial plasma profile) (GLP-1 plasma levels) | plasma triglyceride levels (profile) [1]
1 | 180.7 | 15.8 | CNC(C)c1cc(Cl)c(NC(=O)N2CCN(c3ccc(NC(=O)CCCc4ccccc4)cc3)CC2)c(Cl)c1 (stereo not drawn) [Compound 24] | increase GLP-1 levels | 
2 | 175.4 | 4.47 | O=C(CCCc1ccccc1)Nc1ccc(N2CCN(C(=O)Nc3c(Cl)cc(O)cc3Cl)CC2)cc1 [Compound 30] | increase GLP-1 levels | 
3 | 252.22 | 20 | COc1ccc(CC(=O)Nc2ccc(N3CCN(C(=O)Nc4c(Cl)cc(CN5CCCC5)cc4Cl)CC3)cc2)cc1 [Compound 223] | increase GLP-1 levels | decreased
4 | 172.73 | 129 | Cc1cc(Cl)c(CC(=O)N2CCN(c3ccc(C(=O)NCc4cccc(N5CCCC5)c4)cc3)CC2)c(Cl)n1 [Compound 242] |  | 
5 | 235 to 237 | 151 | COc1ccc(CCNC(=O)c2ccc(N3CCN(C(=O)Nc4c(Cl)cc(CN5CCCC5)cc4Cl)CC3)cc2F)cc1 [Compound 246] |  | 
6 | 239.51 | 191 | O=C(NCc1ccncc1)c1ccc(N2CCN(C(=O)Cc3c(Cl)cccc3Cl)CC2)cc1 [Compound 251] |  | 
7 | 176.5 to 178 | 339 | COc1ccc(CNC(=O)c2ccc(N3CCN(C(=O)Nc4c(Cl)cc(CN5CCCC5)cc4Cl)CC3)cc2F)cc1 [Compound 255] |  | 
8 | 242.27 | 661 | O=C(NCc1cccnc1)c1ccc(N2CCN(C(=O)Cc3c(Cl)cccc3Cl)CC2)cc1 [Compound 257] |  | 
9 | 238.35 | 759 | O=C(NCc1ccco1)c1ccc(N2CCN(C(=O)Cc3c(Cl)cccc3Cl)CC2)cc1 [Compound 258] |  | 
10 | 247.07 | 1350 | C#CCNC(=O)c1ccc(N2CCN(C(=O)Cc3c(Cl)cccc3Cl)CC2)cc1 [Compound 259] |  | 
11 | 175.07 | 3240 | CCOCCNC(=O)c1ccc(N2CCN(C(=O)Cc3c(Cl)cccc3Cl)CC2)cc1 [Compound 262] |  | 
12 | 132.84 | 3720 | COc1ccc(CN(C)C(=O)c2ccc(N3CCN(C(=O)Nc4c(Cl)cc(CN5CCCC5)cc4Cl)CC3)cc2)cc1 [Compound 263] |  | 
13 | 223.77 | 3980 | O=C(NCC1CCOCC1)c1ccc(N2CCN(C(=O)Nc3c(Cl)cc(CN4CCCC4)cc3Cl)CC2)cc1 [Compound 264] |  | 
14 | 161.47 | 6170 | CN(Cc1ccccc1)C(=O)c1ccc(N2CCN(C(=O)Nc3c(Cl)cc(CN4CCCC4)cc3Cl)CC2)cc1 [Compound 266] |  | 
15 | 224.69 | 1.7 | COc1ccc(CC(=O)Nc2ccc(N3CCN(C(=O)Nc4c(Cl)cc(CN5CCN(S(C)(=O)=O)CC5)cc4Cl)CC3)cc2)cc1 [Compound 268] |  | 
16 | 203 to 204 | 3.72 | CC(O)c1cc(Cl)c(NC(=O)N2CCC(c3ccc(NC(=O)CCCc4ccccc4)cc3)CC2)c(Cl)c1 (stereo not drawn) [Compound 273] |  | 
17 | 198 to 199 | 4.27 | O=C(CCCc1ccccc1)Nc1ccc(C2CCN(C(=O)Nc3c(Cl)cc(CO)cc3Cl)CC2)cc1 [Compound 276] |  | 
18 | 227 to 228 | 6.76 | Cc1ccc(NCCC(=O)Nc2ccc(N3CCN(C(=O)Nc4c(Cl)cc(O)cc4Cl)CC3)cc2)c(C)c1 [Compound 280] |  | 
19 | 149 to 150 | 7.24 | C=CCN(CC(=O)Nc1ccc(N2CCN(C(=O)Nc3c(Cl)cc(OC)cc3Cl)CC2)cc1)Cc1ccc(C)cc1C [Compound 281] |  | 
20 | 178 to 179 | 9.12 | COc1ccc(COC(=O)CCCC(=O)Nc2ccc(N3CCN(C(=O)Nc4c(Cl)cc(CN5CCCCC5)cc4Cl)CC3)cc2)cc1 [Compound 285] |  | 

Row | melting point [°C] | IC50 (human DGAT1) [nM] | SMILES | GLP-1 plasma levels (postprandial plasma profile) (GLP-1 plasma levels) | plasma triglyceride levels (profile) [1]
21 | 191.86 | 10 | CC(c1cc(Cl)c(NC(=O)N2CCN(c3ccc(NC(=O)CCCc4ccccc4)cc3)CC2)c(Cl)c1)N(C)C (stereo not drawn) [Compound 288] |  | 
22 | 244 to 245 | 10.2 | O=C(CCNc1ccccc1Cl)Nc1ccc(N2CCN(C(=O)Nc3c(Cl)cccc3Cl)CC2)cc1 [Compound 289] |  | 
23 | 180 to 181 | 10.7 | O=C(CCCC(=O)OCc1ccccc1)Nc1ccc(N2CCN(C(=O)Nc3c(Cl)cc(CN4CCCCC4)cc3Cl)CC2)cc1 [Compound 292] |  | 
24 | 241 to 242 | 17.4 | Cc1ccc(NCCC(=O)Nc2ccc(N3CCN(C(=O)Nc4c(Cl)cccc4Cl)CC3)cc2)c(C)c1 [Compound 298] |  | 
25 | 168.24 | 19.1 | COc1ccc(CC(=O)Nc2ccc(N3CCN(C(=O)Nc4c(Cl)cc(C[N+]5([O-])CCCC5)cc4Cl)CC3)cc2)cc1 [Compound 299] |  | 
26 | 152 to 153 | 20.9 | O=C(CCCc1ccccc1)Nc1ccc(C2CCN(C(=O)Nc3c(Cl)cc(C(=O)O)cc3Cl)CC2)cc1 [Compound 301] |  | 
27 | 243.74 | 21.9 | O=C(COC(=O)c1ccccc1)Nc1ccc(N2CCN(C(=O)Nc3c(Cl)cc(CN4CCCC4)cc3Cl)CC2)cc1 [Compound 304] |  | 
28 | 253.39 | 24.5 | COc1ccc(CC(=O)Nc2ccc(N3CCN(C(=O)Nc4c(Cl)cc(C(=O)N5CCN(C)CC5)cc4Cl)CC3)cc2)cc1 [Compound 305] |  | 
29 | 206.22 | 29.5 | O=C(CC(=O)OCc1ccccc1)Nc1ccc(N2CCN(C(=O)Nc3c(Cl)cc(CN4CCCC4)cc3Cl)CC2)cc1 [Compound 307] |  | 
30 | 212 to 213 | 43.7 | Cc1ccc(CNCC(=O)Nc2ccc(N3CCN(C(=O)Nc4c(Cl)cc(O)cc4Cl)CC3)cc2)c(C)c1 [Compound 311] |  | 
31 | 248.28 | 63.1 | COc1ccc(CC(=O)Nc2ccc(N3CCN(C(=O)Nc4c(Cl)cc(CC[N+](C)(C)C)cc4Cl)CC3)cc2)cc1 [Compound 317] |  | 
32 | 211 to 212 | 64.6 | CCOC(=O)CCCC(=O)Nc1ccc(N2CCN(C(=O)Nc3c(Cl)cc(CN4CCCCC4)cc3Cl)CC2)cc1 [Compound 318] |  | 
33 | 160 to 161 | 66.1 | CC(=O)c1cc(Cl)c(NC(=O)N2CCC(c3ccc(NC(=O)CCCc4ccccc4)cc3)CC2)c(Cl)c1 [Compound 319] |  | 
34 | 208.65 | 91.2 | CCOC(=O)CCCC(=O)Nc1ccc(N2CCN(C(=O)Nc3c(Cl)cc(CN4CCCC4)cc3Cl)CC2)cc1 [Compound 322] |  | 
35 | 204 to 205 | 107 | COC(=O)c1cc(Cl)c(NC(=O)N2CCC(c3ccc(NC(=O)CCCc4ccccc4)cc3)CC2)c(Cl)c1 [Compound 324] |  | 
36 | 200.57 | 355 | O=C(CCC(O)c1ccccc1)Nc1ccc(N2CCN(C(=O)Cc3c(Cl)cccc3Cl)CC2)cc1 (stereo not drawn) [Compound 333] |  | 
37 | 179.55 | 479 | CC(O)c1cc(Cl)c(NC(=O)N2CCN(c3ccc(N(C)C(=O)CCCc4ccccc4)cc3)CC2)c(Cl)c1 (stereo not drawn) [Compound 335] |  | 
38 | 146.12 | 2570 | O=C(CCCc1ccccc1)Nc1ccc(N2CCN(C(=O)Cc3ccccc3)CC2)cc1 [Compound 338] |  | 
39 | 219.91 | 3090 | O=C(CCCc1ccccc1)Nc1ccc(N2CCN(C(=O)Nc3ccccc3)CC2)cc1 [Compound 339] |  | 

Row | SMILES | melting point [°C] | IC50 (human DGAT1) [nM] | GLP-1 plasma levels (postprandial plasma profile) (GLP-1 plasma levels) | plasma triglyceride levels (profile) [1]
40 | COc1ccc(CC(=O)Nc2ccc(N3CCN(C(=O)Oc4c(Cl)cc(CN(C)C)cc4Cl)CC3)cc2)cc1 [Compound 312] | 182.46 | 44.7 |  | 
